{"source": "patent US12215387B2", "about": "“Biomarker predictive of responsiveness to alpha 7 nicotinic acetylcholine receptor activator treatment” (Novartis AG, priority 2012, dated 2025)", "test_system": "patients with schizophrenia", "test": "Continuous Paired Associates Learning (CPAL) test of the CogState schizophrenia battery, by CYP1A2 rs2069514 genotype", "assay_type": "in vivo, human", "text": "To measure the effect of alpha 7 nicotinic acetylcholine receptor activator treatment on the cognitive skills of schizophrenic patients, an adequate cognitive test battery (CogState™) with short duration (as described in detail below) was applied allowing multiple time points measurements during the treatment period (Pietrzak, et al 2009; Maruff, et al 2009).\nThe CPAL task is a validated test that assesses visual episodic memory (associate learning). This test has been used previously in schizophrenia. Before beginning this task, the test supervisor reads the full instructions to the patient from the test supervisor script. On the CPAL test, participants must learn a series of associations between a set of difficult to verbalize patterns and locations. In the presentation phase of the task, the pattern appears at the location and the subject is required to acknowledge that they have seen the pattern by touching the location at which it appears. At this stage of the task the patient will also see that there are two locations at which no target appears (distractor locations). Patterns are presented, in random order. However, once presented the pattern remains at the same location throughout the task. In the learning phase of the task, patients must place each of the eight patterns in their correct locations. They must do this in six rounds. For the first round, one of the patterns is presented in the centre location and the subject is required to remember the location at which it had been shown. They indicate the location by touching it. If they touch the incorrect location, a visual and audible signal occurs (a red cross appears over the location and a buzzer sound is presented). The patient is then required to choose a second location. This process continues until the patient has correctly placed all […] of the targets in their correct locations. Once all eight patterns have been placed correctly, the second round begins. In the second round the patterns remain in the same locations, but their order of presentation in the centre of the screen is different to that of the first round (randomized). The process of placing each target in the correct location proceeds as it did in the first round. When the second round is complete, the same process is repeated as the rounds progress the number of errors made in placing the patterns in their correct locations reduces. Administration time is approximately 5 minutes in healthy volunteers. Patients with Schizophrenia would be expected to complete the task within about 12 minutes.\nThe assessment of activity was obtained from a statistical analysis of the post dose Area Under the Effect Curve (AUEC) 4-10 on CPAL as follows: variables were separately analyzed by means of a linear mixed effect model adjusted for the period-specific baseline value for the scale, the treatment group, the period, and the sequence as fixed effects, and for the patient as a random effect. The period-specific baseline value for the scale was obtained from the average of the period-specific Day −1 values and from the pre-dose value. The mean treatment difference (and its 95% CI) between each B-5 dose group and placebo was obtained from the model. The effect size was obtained by dividing the mean treatment difference (and its 95% CI) by the square root of twice the estimated variance of the residual error. Activity, as defined in the paragraph above, was assessed from the effect size of CPAL.\nIn an attempt to identify a subset of patients who respond to B-5 treatment, a study in a population of 29 individuals using the CPAL assessment was conducted. The purpose was to investigate the relationship between the genetic variants rs2069514 (SEQ IDs NO. 1 and 2) in the CYP1A2 gene and B-5 efficacy in the study. In the study, B-5 mono-fumarate was used in the form of hard gelatin capsules as described in Example E. […]"}
{"smiles": "Cc1ccc(-c2ccc(O[C@H]3CN4CCC3CC4)cn2)cc1", "note": "[B-5, (R)-3-(6-p-tolyl-pyridin-3-yloxy)-1-aza-bicyclo[2.2.2]octane]", "values": [{"measurement": "CPAL - AUC4-10 Estimated mean AUC 4-10", "setting": "CYP1A2 genotype GG (n = 15), B-5 2 mg", "result": 414.75, "unit": "Total # errors × Hours"}, {"measurement": "CPAL - AUC4-10 Placebo - B-5 Effect size", "setting": "CYP1A2 genotype GG (n = 15), B-5 2 mg, P-value 0.59", "result": 0.15}, {"measurement": "CPAL - AUC4-10 Estimated mean AUC 4-10", "setting": "CYP1A2 genotype GG (n = 15), B-5 15 mg", "result": 481.4, "unit": "Total # errors × Hours"}, {"measurement": "CPAL - AUC4-10 Placebo - B-5 Effect size", "setting": "CYP1A2 genotype GG (n = 15), B-5 15 mg, P-value 0.6706", "result": "−0.12"}, {"measurement": "CPAL - AUC4-10 Estimated mean AUC 4-10", "setting": "CYP1A2 genotype GG (n = 15), B-5 100 mg", "result": 457.45, "unit": "Total # errors × Hours"}, {"measurement": "CPAL - AUC4-10 Placebo - B-5 Effect size", "setting": "CYP1A2 genotype GG (n = 15), B-5 100 mg, P-value 0.9344", "result": "−0.02"}, {"measurement": "CPAL - AUC4-10 Estimated mean AUC 4-10", "setting": "CYP1A2 genotypes AA + AG (n = 14), B-5 2 mg", "result": 411.15, "unit": "Total # errors × Hours"}, {"measurement": "CPAL - AUC4-10 Placebo - B-5 Effect size", "setting": "CYP1A2 genotypes AA + AG (n = 14), B-5 2 mg, P-value 0.018", "result": 0.68}, {"measurement": "CPAL - AUC4-10 Estimated mean AUC 4-10", "setting": "CYP1A2 genotypes AA + AG (n = 14), B-5 15 mg", "result": 372.82, "unit": "Total # errors × Hours"}, {"measurement": "CPAL - AUC4-10 Placebo - B-5 Effect size", "setting": "CYP1A2 genotypes AA + AG (n = 14), B-5 15 mg, P-value 0.0023", "result": 0.91}, {"measurement": "CPAL - AUC4-10 Estimated mean AUC 4-10", "setting": "CYP1A2 genotypes AA + AG (n = 14), B-5 100 mg", "result": 384.9, "unit": "Total # errors × Hours"}, {"measurement": "CPAL - AUC4-10 Placebo - B-5 Effect size", "setting": "CYP1A2 genotypes AA + AG (n = 14), B-5 100 mg, P-value 0.0043", "result": 0.83}, {"measurement": "improvement on cognitive function", "setting": "patients homozygous rs2069514-G/G", "result": "did not show any significant improvement"}, {"measurement": "response on visual learning and memory (CPAL) compared to placebo", "setting": "patients rs2069514 A/A or A/G, 2 mg p=0.018, 15 mg p=0.0023, 100 mg p=0.0043", "result": "significant response"}]}
